According to patent US8288399B2, “Medicine containing pyrimidine derivative” (BTG International Limited, priority 2001, dated 2012):
Converted amounts (≈) assume the structure as drawn.

What was measured:
Assay type in all cases: cell-based
[1] = test system: Mouse abdominal cavity macrophages; test: Suppression of macrophage (microglia model) activation caused by β-amyloid, nitrogen monoxide production (Griess); conditions: Aβ1-42 20 μg/ml, 72 hours, mouse interferon γ 250 U/ml and polymyxin B 10 μg/ml, NO production, absorbance at 570 nm
Description: (§1) Suppression of microglia activation caused by β-amyloid Mouse abdominal cavity macrophages were prepared as follows for use as a model for microglia. A mouse (C3H/He, N, male, 7-10 weeks old: Nippon SLC) was subjected to cervical vertebrae dislocation then sprayed with 70% ethanol, the skin of the abdomen was cut open leaving the muscularis, from 5 to 7 ml of PBS (phosphate buffered saline) were injected into the abdominal cavity using a 24 G injection needle, the back was squeezed firmly, then injection solution was drawn from the abdominal cavity using a 23 G injection needle. The cells in the collected solution were centrifugally sedimented (900 rpm, 5 minutes) and washed using PBS, then 8×10^4/well were inoculated onto a 96-well microplate in culture solution (DMEM (Sigma), 10% FBS (Gibco), 100 U/ml penicillin+100 μg/ml streptomycin (Sigma)) and cultured in a 5% CO2/95% air incubator at 37° C. The amount of nitrogen monoxide produced was taken as an indicator of macrophage activation. Specifically, the macrophages were incubated for 72 hours in the presence of 1) Aβ1-42 (20 μg/ml: Sigma), and 2) Aβ1-42 and the test compound, then 50 μl of Griess reagent (0.1% N-(1-naphthyl)ethylenediamine (Sigma), 1% sulphanilamide (Sigma), 3% H3PO4) were added to 50 μl of the supernatant, and the light absorbance at 570 nm was measured. It should be noted that this experiment was conducted in culture solution containing mouse interferon γ (250 U/ml: genzyme techne) and polymyxin B (10 μg/ml: Sigma). Also, the same operations were performed using zymosan A (140 ng/ml: Molecular Probes) or LPS (500 pg/ml: Sigma) instead of Aβ, as controls. For LPS, culture medium containing only mouse interferon γ was used.
(§2) The concentration when the absorbance in the presence of 2) Aβ and test compound was 50% of the absorbance when 1) only Aβ 1-42 was added was taken as IC50, and the activity of the compound was appraised in terms of this value.

[2] = test system: Mouse abdominal cavity macrophages; test: Suppression of macrophage activation caused by zymosan A (control), nitrogen monoxide production (Griess); conditions: zymosan A 140 ng/ml instead of Aβ, 72 hours, mouse interferon γ and polymyxin B, NO production, read-out: IC50 (μg/ml) zymosan A
Description: as §1, §2

[3] = test system: Mouse abdominal cavity macrophages; test: Suppression of macrophage activation caused by LPS (control), nitrogen monoxide production (Griess); conditions: LPS 500 pg/ml instead of Aβ, 72 hours, culture medium containing only mouse interferon γ, NO production, read-out: IC50 (μg/ml) LPS
Description: as §1, §2

| Compound | IC50 [1] | IC50 [2] | IC50 [3] |
| --- | --- | --- | --- |
| Cc1nc2ncnn2c2c1CCN2C(C)c1ccccc1 (stereo not drawn) [Compound C] | 0.4 µg/mL (≈ 1.43 µM) | > 5 µg/mL | > 5 µg/mL |
| Cc1nc2ccnn2c2c1CCN2Cc1ccccc1 [Compound H] | 4 µg/mL (≈ 15.1 µM) | > 5 µg/mL | > 5 µg/mL |
| Cc1nc2ncnn2c2c1CCN2C(C)(C)c1ccccc1 [Compound K] | 5 µg/mL (≈ 17 µM) | > 5 µg/mL | > 5 µg/mL |
| Cc1nc2ncnn2c2c1CC(C)N2Cc1ccccc1Cl (stereo not drawn) [Compound F] | 3.6 µg/mL (≈ 11.5 µM) | > 5 µg/mL | > 5 µg/mL |
| c1ccc(CCN2CCc3c(C4CC4)nc4ncnn4c32)cc1 [Compound A] | 0.4 µg/mL (≈ 1.31 µM) | > 5 µg/mL | > 5 µg/mL |
| Cc1nc2ncnn2c2c1ccn2Cc1ccccc1Cl [Compound G] | 3.8 µg/mL (≈ 12.8 µM) | > 5 µg/mL | > 5 µg/mL |

More lines, now with the values ahead:

| IC50 [1] | IC50 [2] | IC50 [3] | Compound |
| --- | --- | --- | --- |
| 4.3 µg/mL (≈ 16.2 µM) | > 5 µg/mL | > 5 µg/mL | Cc1nc2ncnn2c2c1CCN2Cc1ccccc1 [Compound I] |
| 2.3 µg/mL (≈ 7.74 µM) | > 5 µg/mL | > 5 µg/mL | Cc1nc2ncnn2c2c1CC(C)N2Cc1ccccc1F (stereo not drawn) [Compound D] |
| 3.2 µg/mL (≈ 11.3 µM) | > 5 µg/mL | > 5 µg/mL | Cc1nc2ncnn2c2c1CCN2Cc1ccccc1F [Compound E] |
| 0.5 µg/mL (≈ 1.79 µM) | > 5 µg/mL | > 5 µg/mL | Cc1nc2ncnn2c2c1CCN2CCc1ccccc1 [Compound B] |
| 5 µg/mL (≈ 16.7 µM) | > 5 µg/mL | > 5 µg/mL | Cc1nc2ncnn2c2c1CCN2Cc1ccccc1Cl [Compound J] |
